In patent US20240391945A1, “NUCLEIC ACID SYNTHESIS METHOD USING SEGMENT-TYPE AMIDITE” (NITTO DENKO CORPORATION, priority 2020, published 2024):
Blank lines part the entries; values can stand above or below the compound they belong to.

Experiment: pKa values in water of the activators
Type: physicochemical
Details: for pKa: read-out: pKa in H2O

Compound: CCSc1nnn[nH]1 [ETT, 5-ethylthio-1H-tetrazole]
pKa: 4.3

Compound: saccharin 1-methylimidazole [SMI]
pKa in H2O: 7

Other lines, results leading:

pKa: 3.86
Compound: Cn1nnnc1S [Activator 1-Me-MCT, 5-mercapto-1-methyltetrazole]

pKa: 3.65
Compound: Sc1nnnn1-c1ccccc1 [Activator 1-Ph-MCT, 5-mercapto-1-phenyltetrazole]

pKa: 4.1
Compound: c1ccc(CSc2nnn[nH]2)cc1 [BTT, 5-benzylthiotetrazole]
